Values after ≈ are worked out from the molar mass of the structure shown. Active and inactive are the calls of the source. The rule behind the calls is not given here.

One assay relates to Phoma. Put plainly: Antifungal activity against Phoma CCF3818 assessed as inhibition of hyphae elongation after 24 hrs. It counts as functional. Particulars: CCF3818, 24 h.
A further assay relates to Saccharomyces cerevisiae. Put plainly: Antifungal activity against Saccharomyces cerevisiae at 1000 ug/ml after 24 hrs. In kind it is functional, organism-based.
A further assay concerns Saprolegnia parasitica. The assay can be described thus: Antifungal activity against Saprolegnia parasitica assessed as inhibition of hyphae elongation after 24 hrs. It counts as functional.

Consider `C[C@@H]1C[C@@H]([C@H](O)CC2CC(=O)NC(=O)C2)C(=O)[C@@H](C)C1` [CYCLOHEXIMIDE], for which, in the assay on Phoma, the MIC is 25 mg/L (≈ 88.9 µM).

For the compound `C[C@]1(C(=O)O)[C@@H](O)CC[C@]2(C)c3cc4c(cc3CC[C@@H]12)[nH]c1ccccc14` [ORIDAMYCIN A], the MIC entry with Saccharomyces cerevisiae was “inactive”. Besides, the MIC in the assay on Saprolegnia parasitica was 3 mg/L (≈ 8.25 µM); in the assay with Phoma it was 242 mg/L (≈ 666 µM).

Values taken from ChEMBL document CHEMBL1157111, “Oridamycins A and B, anti-Saprolegnia parasitica indolosesquiterpenes isolated from Streptomyces sp. KS84” (2010).
